Source: patent US20250313574A1, “SIALIC ACID DERIVATIVES AND METHODS OF USING SAME” (EISAI R&D MANAGEMENT CO., LTD., priority 2022, published 2025)

Key:
[1] = biological target: Recombinant human CD33 protein (Homo sapiens (Human), UniProt P20138); assay: CD33 competitive binding assay for HTS drug screen (fluorescent multivalent sialic acid probe)
Method in brief: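 Inhibition was read as reduced retention of a fluorescent multivalent sialic acid complex (final 5 μM neutravidin, 15 μM A-375, 5 μM biotin-4-FITC) on plate-immobilized human CD33. Compound was added first, the probe followed for 30 min at room temperature in PBS with 0.2% Tween-20 and 0.5% BSA, and FITC was measured after a wash.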

[2] = biological target: Recombinant Human Siglec-3/CD33 protein (His-CD33) (Homo sapiens (Human), UniProt P20138); assay: Differential scanning fluorimetry (DSF) thermal shift assay; type: binding; details: thermal melt shift of 0.5 μM CD33 protein with 50 μM compound
Chain of Recombinant Human Siglec-3/CD33 protein (His-CD33) (P20138 18-259): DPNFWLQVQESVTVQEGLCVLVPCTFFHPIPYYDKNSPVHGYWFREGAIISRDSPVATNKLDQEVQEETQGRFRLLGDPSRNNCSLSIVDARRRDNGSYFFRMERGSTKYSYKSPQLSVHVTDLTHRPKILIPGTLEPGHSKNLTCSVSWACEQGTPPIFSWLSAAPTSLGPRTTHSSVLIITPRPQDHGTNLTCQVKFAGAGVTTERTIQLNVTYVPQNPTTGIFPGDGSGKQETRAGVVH
Procedure: In the DSF assay, as the temperature increases, the protein gets gradually unfolded, exposing hydrophobic regions in which a fluorescent dye binds causing the fluorescence signal to increase. The midpoint of the unfolding transitions is called the thermal melt (Tm) or denaturation temperature and the Tm was defined as the peak apex in the derivative curve. Here, the Tm temperature of CD33 in the presence and absence of A-001 at a concentration of 50 μM was examined.
Recombinant Human Siglec-3/CD33 protein was purchased from Acros (catalog no. CD3-H5226) and reagents used in this study are shown in the Table 1 below.
Lyophilized CD33 protein was received in 1 mg aliquots from Acros. The protein was diluted with 2.5 mL of sterile water to a concentration of 400 μg/mL (14.5 μM), aliquoted into 138 μL aliquots and stored as at −20° C. On the day of analysis, the protein was thawed and […] solution was diluted to […] using buffer containing 133 mM NaCl, 133 mM phosphate buffered solution and 13.9× Sypro Orange dye in water in a quantity to cover the amount of samples tested on the day of the analysis.
200 μM stock solutions of A-001 containing 0.2% DMSO in water was supplied by compound management in a 384-well plate format.
Sample matrix were prepared by adding 7.5 μL of the protein buffer stock solution followed by addition of 2.5 μL of the 200 μM compound solutions in 384-well PCR plates to give a final volume of 10 μL per well consisting of 0.5 μM CD33 protein, 100 mM phosphate buffered solution pH 7.4, 100 mM NaCl, 10× SYPRO orange dye and 50 μM compound concentration (final DMSO concentration ˜0.2%). Using the Applied Biosystems® Protein Thermal Shift software (algorithm version 1.3.), the denaturation temperature or thermal melt (Tm) of the unbound and ligand bound CD33 protein was automatically assigned and the difference in thermal melt (ΔTm D) was calculated using the derivative curve by the Protein Thermal Shift software.
Recombinant human CD33 protein (0.5 μM) was incubated under buffered conditions in the presence of SYPRO orange dye, a temperature gradient was applied and a thermogram was produced by monitoring the fluorescence. The Tm was defined as the peak apex in the derivative curve in the study. […] Addition of […] of A-001 (Blue lines) to the CD33 protein induced significant Tm increases (ΔTm D) of 12.2±0.7° C.

Chain of Recombinant human CD33 protein (P20138 18-259): as above

Structure (SMILES)	EC50 [1] [nM]	DSF (dTmD) [2]
CC(=O)N[C@H]1[C@H]([C@H](O)[C@H](O)CNC(=O)c2cc(C)c(O)c(C)c2)O[C@@](CCN2CCOC[C@@]23CCN(C(=O)C2(C)CCC2)C3)(C(=O)O)C[C@@H]1O [A-103]	1020	6.6
CC(=O)N[C@H]1[C@H]([C@H](O)[C@H](O)CNC(=O)c2cc(C)c3[nH]ccc3c2)O[C@@](CCN2CCOC[C@@]23CCN(C(=O)OC(C)(C)C)C3)(C(=O)O)C[C@@H]1O [A-109]	6	16.6
CC(=O)N[C@H]1[C@H]([C@H](O)[C@H](O)CNC(=O)c2ccc3ncsc3c2)O[C@@](CCN2CCOC[C@@]23CCN(C(=O)OC(C)(C)C)C3)(C(=O)O)C[C@@H]1O [A-110]	30	12.2
CC(=O)N[C@H]1[C@H]([C@H](O)[C@H](O)CNC(=O)c2cc(C)c3[nH]ncc3c2)O[C@@](CCN2CCOC[C@@]23CCN(C(=O)OC(C)(C)C)C3)(C(=O)O)C[C@@H]1O [A-111]	16	12.5
CC(=O)N[C@H]1[C@H]([C@H](O)[C@H](O)CNC(=O)c2ccc3[nH]cc(C)c3c2)O[C@@](CCN2CCOC[C@@]23CCN(C(=O)OC(C)(C)C)C3)(C(=O)O)C[C@@H]1O [A-112]	22	12.5
CC(=O)N[C@H]1[C@H]([C@H](O)[C@H](O)CNC(=O)c2c[nH]c(C)c2)O[C@@](CCN2CCOC[C@@]23CCN(C(=O)OC(C)(C)C)C3)(C(=O)O)C[C@@H]1O [A-113]	34	11.1
CC(=O)N[C@H]1[C@H]([C@H](O)[C@H](O)CNC(=O)c2ccc3ncccc3n2)O[C@@](CCN2CCOC[C@@]23CCN(C(=O)OC(C)(C)C)C3)(C(=O)O)C[C@@H]1O [A-114]	22	12.4
CC(=O)N[C@H]1[C@H]([C@H](O)[C@H](O)CNC(=O)c2cc(Br)c(O)c(Br)c2)O[C@@](CCN2CCOC[C@@]23CCN(C(=O)OC(C)(C)C)C3)(C(=O)O)C[C@@H]1O [A-115]	7	15.1
CC(=O)N[C@H]1[C@H]([C@H](O)[C@H](O)CNC(=O)c2cccc(Br)c2)O[C@@](CCN2CCOC[C@@]23CCN(C(=O)OC(C)(C)C)C3)(C(=O)O)C[C@@H]1O [A-116]	42	12.4
CC(=O)N[C@H]1[C@H]([C@H](O)[C@H](O)CNC(=O)c2ccc(O)c(C)c2)O[C@@](CCN2CCOC[C@@]23CCN(C(=O)OC(C)(C)C)C3)(C(=O)O)C[C@@H]1O [A-117]	28	12.4
COc1c(C)cc(C(=O)NC[C@@H](O)[C@@H](O)[C@@H]2O[C@@](CCN3CCOC[C@@]34CCN(C(=O)OC(C)(C)C)C4)(C(=O)O)C[C@H](O)[C@H]2NC(C)=O)cc1C [A-118]	60	12.1
CC(=O)N[C@H]1[C@H]([C@H](O)[C@H](O)CNC(=O)c2cc(C)c(N)c(C)c2)O[C@@](CCN2CCOC[C@@]23CCN(C(=O)OC(C)(C)C)C3)(C(=O)O)C[C@@H]1O [A-119]	17	14.0
COc1ccc(C(=O)NC[C@@H](O)[C@@H](O)[C@@H]2O[C@@](CCN3CCOC[C@@]34CCN(C(=O)OC(C)(C)C)C4)(C(=O)O)C[C@H](O)[C@H]2NC(C)=O)cc1OC [A-120]	40	12.2
CC(=O)N[C@H]1[C@H]([C@H](O)[C@H](O)CNC(=O)c2ccc3occc3c2)O[C@@](CCN2CCOC[C@@]23CCN(C(=O)OC(C)(C)C)C3)(C(=O)O)C[C@@H]1O [A-121]	29	13.6
CC(=O)N[C@H]1[C@H]([C@H](O)[C@H](O)CNC(=O)c2cc3ncccn3n2)O[C@@](CCN2CCOC[C@@]23CCN(C(=O)OC(C)(C)C)C3)(C(=O)O)C[C@@H]1O [A-122]	32	12.4
COc1cc(C(=O)NC[C@@H](O)[C@@H](O)[C@@H]2O[C@@](CCN3CCOC[C@@]34CCN(C(=O)OC(C)(C)C)C4)(C(=O)O)C[C@H](O)[C@H]2NC(C)=O)cc(OC)c1O [A-123]	68	11.0
